Literature values as cited in US20110123622A1, “OPHTHALMIC FORMULATION AND METHOD OF MANUFACTURE THEREOF” (Inotek Pharmaceuticals Corporation, priority 2009, published 2011).

System: human exhibiting elevated intraocular pressure as a result of OHT or POAG

Question: Which results are given for O=[N+]([O-])OC[C@H]1O[C@@H](n2cnc3c(NC4CCCC4)ncnc32)[C@H](O)[C@@H]1O [Compound A, ((2R,3S,4R,5R)-5-(6-(cyclopentylamino)-9H-purin-9-yl)-3,4-dihydroxytetrahydrofuran-2-yl)methyl nitrate]?
Answer: reduction in IOP, comparison of dose groups (350 mcg and 700 mcg treatment groups, HPβCD formulation): greatest reduction in IOP; IOP upon a single application (formulated 1:20 wt/wt in HPβCD, 2.5 to 700 micrograms per eye): statistically significant dose-related decrement in IOP
